Values quoted from earlier work as cited in patent publication US6352152B1, “Method and package for storing a pressurized container containing a drug” (Smithkline Beecham Corporation, priority 1998, dated 2002).

Settings: Pischtiak 1999, Solvay chemical data sheet

Compound	maximum water solubility in the propellant
FCC(F)(F)F [HFC 134a, 1,1,1,2-tetrafluoroethane]	about 2200 ppm
FC(F)(Cl)C(F)(F)Cl [CFC 114]	about 130 ppm
FC(F)(Cl)Cl [CFC 12]	about 130 ppm
